According to paper PMC12081876, “Identification of PTGR2 inhibitors as a new therapeutic strategy for diabetes and obesity” (EMBO Molecular Medicine, 2025):
Several values for one entry are separate records, joined by “and”; a condition that tells them apart may be missing. Equal entries are not always repeated.

Columns and labels:
[1] = test system: differentiated 3T3-L1 adipocytes; test: Insulin-stimulated glucose uptake assay by (3H)2-deoxyglucose; assay type: cell-based, mouse; design: insulin-stimulated glucose uptake, Fig 1J replicates / Figure 5E raw value, insulin-stimulated glucose uptake (replicates): unit not given here
Method: (§1) The cell lines, which were tested for mycoplasma contamination and authenticated, were purchased from the Bioresource Collection and Research Center, Taiwan. All cells were cultured at 37 °C, 5% CO2 in a humidified incubator. HEK293T cells were maintained in DMEM (cat. no. SH30003.02, HyClone) supplemented with 10% fetal bovine serum (FBS) (cat. no. 04-001-1A, Biological Industries) and 1% antibiotic/antimycotic solution (cat. no. SV30079.01, HyClone). 3T3-L1 preadipocytes were maintained at ~70% confluence in DMEM with 10% calf serum (cat. no. 16170078, Gibco) and 1% antibiotic/antimycotic solution. For adipocyte differentiation, confluent 3T3-L1 cells (defined as day 0) were exposed to an induction medium containing 10% FBS, 1 μM dexamethasone (cat. no. D4902, Sigma-Aldrich), and 1 μg/ml insulin (Humulin R, Eli Lilly) in DMEM with or without 0.5 mM isobutyl-methylxanthine (cat. no. sc-201188A, Santa Cruz Biotechnology) as indicated. After two days, the medium was replaced with DMEM containing 10% FBS and 1 μg/ml insulin and was replenished every two days until assay.
Differentiated 3T3-L1 cells were starved with serum-free DMEM containing 0.2% BSA (cat. no. A9647, Sigma-Aldrich). Cells were rinsed twice with KRH buffer (137 mM NaCl, 4.7 mM KCl, 1.85 mM CaCl2, 1.3 mM MgSO4, 50 mM HEPES and 0.1% BSA, pH 7.4), and treated with or without […] insulin in the presence of 20 μM cytochalasin B (cat. no. 11328, Cayman Chemical), a GLUT inhibitor for measuring non-specific glucose uptake, for 30 min. Cells were then incubated with 0.5 μCi [^3H]-2-deoxy-D-Glucose (cat. no. NET328A001MC, PerkinElmer) and 0.1 μM 2-deoxy-D-Glucose (2DG) (cat. no. 14325, Cayman Chemical) for 5 min. Uptake of 2DG was terminated by rapidly removing medium and washing with ice-cold PBS three times. Cells were lysed with 0.1% SDS, and the radioactivity was measured using a liquid scintillation counter. Insulin-mediated glucose uptake was calculated by subtracting insulin-treated glucose uptake with basal glucose uptake.

[2] = test system: PTGR2; design: method as in Toroitich et al, 2021; details: ref Toroitich et al, 2021; cited from earlier work
[3] = test system: PTGR2; design: method as in Toroitich et al, 2021; details: ref Toroitich et al, 2021; cited from earlier work; remark: listed apart in the source
[4] = test system: mPPARγ-downstream genes; test: RT-qPCR of Glut4 and other mPPARγ-downstream genes in differentiated 3T3-L1 adipocytes; assay type: cell-based, mouse
Method: as §1
A total of 1 × 10^5 3T3-L1 preadipocytes were seeded in 6-well plates and differentiated for six days. The 3T3-L1 adipocytes were then harvested in 1 ml of REzol C&T (cat. no. PT-KP200CT, Protech), and total RNA was extracted according to the manufacturer’s instructions with slight modifications. Briefly, 200 μl of chloroform were added to 1 ml of sample in REzol, and samples were vigorously mixed by shaking for 30 s, followed by incubation at room temperature for 5 min. Then, samples were centrifuged at 12,000 × g for 15 min at 4 °C, and 400 μl of the upper aqueous phase were transferred to a new 1.5-ml tube. An equal volume of isopropanol was added. Samples were inverted several times for mixing and then centrifuged at 12,000 × g for 10 min at 4 °C. The RNA precipitate, which formed a pellet at the bottom of the 1.5-ml tube, was washed three times with 75% ethanol and air-dried for 15 min. Pellets were dissolved in RNase-free water. The concentration of RNA was measured using Nanodrop. cDNA was synthesized using a reverse transcription kit (cat. no. K1622, Thermo Scientific) using the oligo(dT)18 primers. RT-qPCR was performed in a 10-μl reaction with 50 ng cDNA and 0.2 μM primer using SYBR green reagent (cat. no. 11203ES08, YEASEN). Mouse peptidylprolyl isomerase A (Ppia) mRNA was used as the internal control. RT-qPCR reactions were performed using ABI 7900HT FAST (Applied Biosystems) and Sequence Detection Systems (SDS v2.3, Applied Biosystems). All qPCR reactions were run in duplicates. The primers used are listed in Appendix Table S3.

[5] = test system: PPARγ-null 3T3-L1 clones rescued with wild-type mPPARγ; test: Insulin-stimulated glucose uptake in PPARγ-null 3T3-L1 clones rescued with wild-type mPPARγ; assay type: cell-based, mouse; details: Pio 1; clone #1296 rescued with wild-type mPPARγ
Method: (§2) Gene editing was performed in 3T3-L1 preadipocytes using the clustered regularly interspaced short palindromic repeats (CRISPR)/Cas9 system. Two single-guide RNAs (sgRNA) (Appendix Table S5) targeting exon 6 of mouse Pparγ were designed using a web-based design tool (http://crispr.mit.edu/). These oligonucleotides were cloned into the pSurrogate reporter and pAll-Cas9.Ppuro vector obtained from Academia Sinica, Taiwan. The pSurrogate reporter contains an EGFP and an out-of-frame mCherry downstream of the sgRNA; the pAll-Cas9.Ppuro vector expresses Cas9 nuclease and sgRNA. Once a double-strand breaking at the target site in pSurrogate reporter plasmid was created by Cas9, insertions and deletions (indels) could be introduced at the cleaved site. The indels cause frameshifts and result in the expression of the mCherry gene. 3T3-L1 preadipocytes were co-transfected with pSurrogate reporter and pAll-Cas9.Ppuro vectors at 80-90% confluency using PolyJet™ transfection reagent (cat. no. SL100688, SignaGen Laboratories, USA). Two days after transfection, EGFP/mCherry double-positive cells were enriched by fluorescent-activated cell sorting. Single cells were isolated and expanded. The genomic DNA was amplified by PCR and sequenced to confirm the knockout cell lines. The primer sequences are shown in Appendix Table S5.
(§3) The mPPARγ C313A DNA sequence was amplified from pCMV6-Pparg C313A and subcloned into the pLVX-IRES-Neo vector with XhoI/NotI restriction sites. The lentiviral expression plasmids, pMD.G, and pCMVΔR8.91 (RNAi Core, Academia Sinica, Taiwan), were co-transfected into HEK293T cells. […] HSP70 was probed with an anti-HSP70 antibody (cat. no. ab45133, Abcam) as a loading control.
(§4) Differentiated 3T3-L1 cells were starved with serum-free DMEM containing 0.2% BSA (cat. no. A9647, Sigma-Aldrich). […] Uptake of 2DG was terminated by rapidly removing medium and washing with ice-cold PBS three times. Cells were lysed with 0.1% SDS, and the radioactivity was measured using a liquid scintillation counter. Insulin-mediated glucose uptake was calculated by subtracting insulin-treated glucose uptake with basal glucose uptake.

[6] = test system: PPARγ-null 3T3-L1 clones rescued with mutant mPPARγ (C313A); test: Insulin-stimulated glucose uptake in PPARγ-null 3T3-L1 clones rescued with mutant mPPARγ (C313A); assay type: cell-based, mouse; details: Pio 1; clone #1296 rescued with mPPARγ C313A
Method: as §2, §3, §4

CCCCCC(=O)/C=C/[C@H]1[C@H](O)CC(=O)[C@@H]1C/C=C\CCCC(=O)O [15ketoPGE2]
Figure 5E raw value, insulin-stimulated glucose uptake (replicates) ([1]; 10 uM, DMSO control 2969.5-4461.5): 5153.5 and 5837.5 and 5784.5 and 5754.5

O=C(c1ccc(S(=O)(=O)n2cncn2)cc1)N1CCC(c2ccccc2)CC1 [HHS-0701]
PTGR2 enzymatic activity [2]: inhibit PTGR2 enzymatic activity
intracellular 15-keto-PGE2 concentration [3]: increase intracellular 15-keto-PGE2 concentration dose-dependently

CCc1ccc(CCOc2ccc(CC3SC(=O)NC3=O)cc2)nc1 (stereo not shown) [Pio, pioglitazone]
Adipoq RT-qPCR, Fig 1I replicates ([4]; Pio 1μM): 1.437 and 1.615 and 1.7913
Cepba RT-qPCR, Fig 1H replicates ([4]; Pio 1μM): 2.586 and 1.702 and 2.911
Acs RT-qPCR, Fig 1G replicates ([4]; Pio 1): 6.866 and 5.338 and 5.547
Cd36 RT-qPCR, Fig 1F replicates ([4]; Pio 1): 2.685 and 1.765 and 2.147
Glut4 RT-qPCR, Fig 1C replicates ([4]; Pio 1): 6.074 and 7.473 and 6.277
Irs2 RT-qPCR, Fig 1D replicates ([4]; Pio 1): 3.5423 and 3.905 and 3.691
Sorbs1 RT-qPCR, Fig 1E replicates ([4]; Pio 1): 2.4621 and 3.493 and 3.111
insulin-stimulated glucose uptake, Fig 1J replicates ([1]; Pio 1): 4.303 and 3.949 and 2.761 and 3.925
insulin-stimulated glucose uptake, Fig 1P left panel replicates [5]: 4.143 and 3.599 and 3.13 and 3.624
insulin-stimulated glucose uptake, Fig 1P right panel replicates [6]: 4.613 and 5.328 and 5.351 and 7.42
